Laboratory results taken from patent US20230183193A1, “4-DIFLUOROMETHYL BENZOYL AMIDES WITH HERBICIDAL ACTION” (BAYER CROPSCIENCE AKTIENGESELLSCHAFT, priority 2017, published 2023).

What was measured:
Assay type in all cases: in vivo
Pharbitis purpureum = assay: Post-emergence herbicidal action, PHBPU; settings: 80 g/ha, Table D
Description: (§1) Seeds of monocotyledonous and dicotyledonous weed and crop plants are laid out in sandy loam soil in wood-fiber pots, covered with soil and cultivated in a greenhouse under good growth conditions. 2 to 3 weeks after sowing, the test plants are treated at the one-leaf stage. The compounds of the invention, formulated in the form of wettable powders (WP) or as emulsion concentrates (EC), are then sprayed onto the green parts of the plants in the form of an aqueous suspension or emulsion at a water application rate equating to […], with addition of 0.2% wetting agent. After the test plants have been left to stand in the greenhouse under optimal growth conditions for about 3 weeks, the action of the preparations is assessed visually in comparison to untreated controls (herbicidal action in percent (%): 100% activity=the plants have died, 0% activity=like control plants). […] At the same time, inventive compounds leave Gramineae crops such as barley, wheat, rye, millet/sorghum, corn or rice virtually undamaged when applied post-emergence, even at high active compound dosages. In addition, some substances are also harmless to dicotyledonous crops such as soya, cotton, oilseed rape, sugar beet or potatoes. Some of the compounds according to the invention have high selectivity and are therefore suitable for controlling unwanted vegetation in agricultural crops by the post-emergence method. The data of Tables C and D below illustrate, in an exemplary manner, the […] herbicidal action of the compounds according to the invention, the herbicidal activity being stated in percent.
(§2) For comparison, the herbicidal activity of numerous compounds according to the invention was tested with the structurally closest compounds known from the documents WO 2011/035874, WO 2012/028579 and WO 2012/126932, by the pre- and post-emergence method.

Viola tricolor [1] = assay: Pre-emergence herbicidal action, VIOTR; settings: dosage 320 g/ha, scored visually after 3 weeks vs untreated controls
From the text: (§3) 1. Pre-Emergence Herbicidal Action Against Harmful Plants Seeds of monocotyledonous and dicotyledonous weed plants and crop plants are laid out in sandy loam soil in wood-fiber pots and covered with soil. The compounds of the invention, formulated in the form of wettable powders (WP) or as emulsion concentrates (EC), are then applied to the surface of the covering soil in the form of an aqueous suspension or emulsion at a water application rate equating to […], with addition of 0.2% wetting agent. After the treatment, the pots are placed in a greenhouse and kept under good growth conditions for the trial plants. The damage to the test plants is scored visually after a test period of 3 weeks by comparison with untreated controls (herbicidal activity in percent (%): 100% activity=the plants have died, 0% activity=like control plants).
as §2

Amaranthus retroflexus [2] = assay: Post-emergence herbicidal action, AMARE; settings: 80 g/ha, Table D
Description: as §1, §2

Matricaria inodora = assay: Pre-emergence herbicidal action, MATIN; settings: dosage 320 g/ha, scored visually after 3 weeks vs untreated controls
From the text: as §3, §2

Abutilon theophrasti [3] = assay: Pre-emergence herbicidal action, ABUTH; settings: dosage 320 g/ha, scored visually after 3 weeks vs untreated controls
From the text: as §3, §2

Stellaria media [4] = assay: Post-emergence herbicidal action, STEME; settings: 80 g/ha, Table D
Description: as §1, §2

Stellaria media [5] = assay: Pre-emergence herbicidal action, STEME; settings: dosage 320 g/ha, scored visually after 3 weeks vs untreated controls
From the text: as §3, §2

Amaranthus retroflexus [6] = assay: Pre-emergence herbicidal action, AMARE; settings: dosage 320 g/ha, scored visually after 3 weeks vs untreated controls
From the text: as §3, §2

Setaria viridis [7] = assay: Pre-emergence herbicidal action, SETVI; settings: dosage 320 g/ha, scored visually after 3 weeks vs untreated controls
From the text: as §3, §2

ECHCG = assay: Post-emergence herbicidal action, ECHCG; settings: 80 g/ha, Table C
Description: as §1

Viola tricolor [8] = assay: Post-emergence herbicidal action, VIOTR; settings: 80 g/ha, Table D
Description: as §1, §2

Setaria viridis [9] = assay: Post-emergence herbicidal action, SETVI; settings: 80 g/ha, Table C
Description: as §1, §2

Abutilon theophrasti [10] = assay: Post-emergence herbicidal action, ABUTH; settings: 80 g/ha, Table D
Description: as §1, §2

Cyperus serotinus = assay: Pre-emergence herbicidal action, CYPES; settings: dosage 320 g/ha, scored visually after 3 weeks vs untreated controls
From the text: as §3, §2

Avena fatua = assay: Pre-emergence herbicidal action, AVEFA; settings: dosage 320 g/ha, scored visually after 3 weeks vs untreated controls
From the text: as §3, §2

Alopecurus myosuroides = assay: Pre-emergence herbicidal action, ALOMY; settings: dosage 320 g/ha, scored visually after 3 weeks vs untreated controls
From the text: as §3, §2

SMILES | Herbicidal activity PHBPU (Pharbitis purpureum) [%] | herbicidal activity VIOTR (Viola tricolor [1]) [%] | herbicidal activity AMARE (Amaranthus retroflexus [2]) [%] | herbicidal activity MATIN (Matricaria inodora) [%] | herbicidal activity ABUTH (Abutilon theophrasti [3]) [%] | Herbicidal activity STEME (Stellaria media [4]) [%] | Herbicidal activity STEME (Stellaria media [5]) [%] | herbicidal activity AMARE (Amaranthus retroflexus [6]) [%] | herbicidal activity SETVI (Setaria viridis [7]) [%] | Herbicidal activity ECHCG (ECHCG) [%] | herbicidal activity VIOTR (Viola tricolor [8]) [%] | herbicidal activity SETVI (Setaria viridis [9]) [%] | herbicidal activity ABUTH (Abutilon theophrasti [10]) [%] | herbicidal activity CYPES (Cyperus serotinus) [%] | herbicidal activity AVEFA (Avena fatua) [%] | herbicidal activity ALOMY (Alopecurus myosuroides) [%]
Cn1nnnc1NC(=O)c1ccc(C(F)F)c(S(C)(=O)=O)c1I [Example 1-75] | 80 | 90 | 90 | 90 | 90 | 100 | 100 | 90 | 100 |  |  |  |  |  |  | 
CCSc1c(C(F)F)ccc(C(=O)Nc2ncnn2C)c1C [Example 4-4] | 80 | 100 | 100 | 100 |  | 90 | 100 | 100 |  | 100 | 100 | 90 | 80 |  |  | 
CC[S+]([O-])c1c(C(F)F)ccc(C(=O)Nc2ncnn2C)c1C (centres unmarked) [Example 4-5] | 90 | 100 | 90 | 90 |  | 90 |  | 100 |  | 90 | 100 | 90 | 80 |  |  | 
CSc1c(C(F)F)ccc(C(=O)Nc2ncnn2C)c1C1CC1 [Example 4-25] | 80 | 100 | 90 | 90 | 90 | 100 | 90 | 90 |  |  | 90 |  |  |  |  | 
CCSc1c(C(F)F)ccc(C(=O)Nc2ncnn2C)c1C1CC1 [Example 4-28] | 90 | 100 | 80 | 90 | 100 | 100 | 90 | 90 |  |  | 80 |  |  |  |  | 
CC[S+]([O-])c1c(C(F)F)ccc(C(=O)Nc2ncnn2C)c1C1CC1 (centres unmarked) [Example 4-29] | 90 | 100 | 80 | 90 | 100 | 90 | 90 | 90 |  |  | 90 |  | 80 |  |  | 
CCS(=O)(=O)c1c(C(F)F)ccc(C(=O)Nc2ncnn2C)c1C1CC1 [Example 4-30] | 90 | 90 |  | 100 | 100 | 90 | 90 | 90 |  |  | 80 |  | 80 | 80 |  | 
CSc1c(C(F)F)ccc(C(=O)Nc2ncnn2C)c1F [Example 4-37] |  | 90 | 100 | 100 | 100 | 80 | 100 | 100 |  | 80 | 80 | 90 | 80 |  |  | 
Cn1ncnc1NC(=O)c1ccc(C(F)F)c([S+](C)[O-])c1F (centres unmarked) [Example 4-38] | 90 |  | 90 |  | 90 | 90 |  |  |  | 80 | 100 |  | 90 |  |  | 
Cn1ncnc1NC(=O)c1ccc(C(F)F)c(S(C)(=O)=O)c1F [Example 4-39] | 90 | 100 | 90 | 90 | 100 | 100 | 100 | 100 | 100 |  | 90 |  | 90 |  |  | 
CCSc1c(C(F)F)ccc(C(=O)Nc2ncnn2C)c1F [Example 4-40] |  | 100 | 100 | 100 | 100 | 90 | 100 | 100 | 80 | 90 | 80 | 90 | 80 | 100 |  | 
CC[S+]([O-])c1c(C(F)F)ccc(C(=O)Nc2ncnn2C)c1F (centres unmarked) [Example 4-41] | 90 | 90 | 90 |  | 100 | 90 | 80 | 100 | 80 | 80 | 90 |  | 100 |  |  | 
Cn1ncnc1NC(=O)c1ccc(C(F)F)c(S(C)(=O)=O)c1I [Example 4-75] | 80 | 90 | 100 | 100 | 100 | 90 | 100 | 100 | 90 |  | 80 |  |  | 80 |  | 
CCSc1c(C(F)F)ccc(C(=O)Nc2nonc2Cl)c1C [Example 6-4] | 80 | 100 |  | 90 | 90 | 90 | 90 | 100 | 100 | 100 | 100 | 100 | 90 |  | 90 | 
CC[S+]([O-])c1c(C(F)F)ccc(C(=O)Nc2nonc2Cl)c1C (centres unmarked) [Example 6-5] |  | 100 |  | 90 | 100 | 90 | 90 | 100 | 100 | 100 | 100 | 90 | 80 |  | 90 | 90
